Laboratory results: patent publication US20230143604A1, “QW DOSING OF GIP RECEPTOR AGONIST PEPTIDE COMPOUNDS AND USES THEREOF” (TAKEDA PHARMACEUTICAL COMPANY LIMITED, priority 2020, published 2023)
Where “and” joins values, the source holds several entries; their conditions need not be identical. Identical values can stand only once. Like-named read-outs stand apart in the source and are kept apart here.

How the values were obtained:
C57BL/6J mice = experiment: Oral glucose tolerance test (OGTT); type: in vivo; settings: 3 nmol/kg s.c., 24 hours before glucose loading
How it was run: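 Peptide or vehicle given s.c. at 0.1, 0.3, 3 or 10 nmol/kg (peptide-dependent), 24 h before oral 50% dextrose at 5 ml/kg unless stated otherwise. Blood glucose read at 0, 15, 30 and 60 min. % inhibition = (1−(AUC cpd−AUC naïve)/(AUC veh−AUC naïve))×100.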

Dogs = type: in vivo; settings: 30 nmol/kg s.c.
physchem = experiment: physchem
How it was run: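 3 mg of peptide treated with 100 μL portions of 200 mM phosphate buffer pH 7.4, sonicating/vortexing up to 1 min, with further buffer added until fully dissolved. Solubility then quantified by HPLC.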

CC[C@H](C)[C@H](NC(=O)[C@H](CO)NC(=O)[C@H](Cc1ccc(O)cc1)NC(=O)[C@H](CC(=O)O)NC(=O)[C@H](CO)NC(=O)[C@@H](NC(=O)[C@H](Cc1ccccc1)NC(=O)[C@@H](NC(=O)CNC(=O)[C@H](CCC(=O)O)NC(=O)C(C)(C)NC(=O)[C@H](Cc1ccc(O)cc1)NC)[C@@H](C)O)[C@@H](C)CC)C(=O)N[C@@H](C)C(=O)N[C@@H](CC(C)C)C(=O)N[C@@H](CC(=O)O)C(=O)N[C@@H](CCCNC(=N)N)C(=O)N[C@@H](CCCCNC(=O)CNC(=O)CNC(=O)CNC(=O)CNC(=O)CNC(=O)CCCCCCCCCCCCCCCCC(=O)O)C(=O)N[C@@H](C)C(=O)N[C@@H](CCC(N)=O)C(=O)NC(C)(C)C(=O)N[C@@H](CC(=O)O)C(=O)N[C@@H](Cc1ccccc1)C(=O)N[C@H](C(=O)N[C@@H](CC(N)=O)C(=O)N[C@@H](Cc1c[nH]c2ccccc12)C(=O)N[C@@H](CC(C)C)C(=O)N[C@@H](CC(C)C)C(=O)N[C@@H](C)C(=O)N[C@@H](CCC(N)=O)C(=O)N[C@@H](CO)C(=O)N1CCC[C@H]1C(=O)N[C@@H](CO)C(=O)N[C@@H](CO)C(=O)NCC(=O)N[C@@H](C)C(=O)N1CCC[C@H]1C(=O)N1CCC[C@H]1C(=O)N1CCC[C@H]1C(=O)N[C@@H](CO)C(N)=O)C(C)C [Compound 50, Me-Y-Aib-E-G-T-F-I-S-D-Y-S-I-A-L-D-R-Km-A-Q-Aib-D-F-V-N-W-L-L-A-Q-S-P-S-S-G-A-P-P-P-S-NH2]
Oral Glucose Tolerance Test Percent decrease in blood glucose AUC (%) over 60 mins (C57BL/6J mice): 89% and 69% | % inhibition of emetic events at doses (nmol/kg) shown in dog apomorphine model (Dogs; after 8 hrs (upper)): 82% (30 nmol/kg) | % inhibition of emetic events at doses (nmol/kg) shown in dog apomorphine model (Dogs; after 72 hours (lower)): 86% (30 nmol/kg) | solubility (physchem; pH 7.4): ≥ 15 mg/mL | solubility (physchem; pH 7.4, aqueous buffer): ≥ 60 mg/mL
